Measured values from EPA's ToxValDB 9.5.
Where “and” joins values, the source holds several entries; their conditions need not be identical. Equal values may be shown once. Values belong to the compound of their own block, whether it stands above or below them.

Legend:
[1] = test system: Cavia porcellus; conditions: acute; oral; Guinea Pig
[2] = test system: Mus musculus
[3] = test system: Oryctolagus sp.; conditions: acute
[4] = test system: Rattus norvegicus; conditions: oral
[5] = test system: Rattus norvegicus; conditions: subchronic, oral
[6] = test system: Canidae; experiment: LD0; higher = less toxic; conditions: acute; injection; intravenous; Dog Other
[7] = test system: Cavia porcellus; experiment: LD0; higher = less toxic; conditions: acute; injection; subcutaneous; Guinea Pig
[8] = test system: Oryctolagus sp.; experiment: LD0; higher = less toxic; conditions: acute; dermal
[9] = test system: Rattus norvegicus; experiment: LD0; higher = less toxic; conditions: acute; injection; subcutaneous
[10] = test system: Mus musculus; experiment: LD100; higher = less toxic; conditions: acute
[11] = test system: Mus musculus; conditions: uterotrophic, Active
[12] = test system: Ovis sp.; conditions: uterotrophic; duration: 14 days; injection; Active
[13] = test system: Rattus norvegicus; conditions: uterotrophic, Active
[14] = test system: Oryctolagus sp.; conditions: uterotrophic; duration: 12 days; oral; Active
[15] = test system: Sus scrofa; conditions: reproduction developmental; duration: 15 days; oral; diet; F; Not specified; Increased inter-estrus interval, concentrations of progesterone and prolonged maintenance of corpora lutea
[16] = test system: Sus scrofa; conditions: subchronic; duration: 90 days; oral; diet; M/F; Not specified; Urinary, Hepatic
[17] = test system: Rattus norvegicus; conditions: repeat dose other; oral
[18] = test system: Mus musculus; conditions: developmental; inhalation; M/F; developmental toxicity (skeletal variations)
[19] = test system: Rattus norvegicus; conditions: developmental; oral; drinking water; M/F; reduced pup body weight
[20] = test system: Homo sapiens; conditions: clinical; duration: 6 hours; inhalation; M/F; neurological
[21] = test system: Mus musculus; conditions: developmental; duration: 10 days; inhalation; intermittent; Fetus: Decreased birth weight
[22] = test system: Rattus norvegicus; conditions: developmental; oral; drinking water; Fetus: Decreased birth weight
[23] = test system: Rattus norvegicus; experiment: LD5; higher = less toxic; conditions: developmental; oral; drinking water; M/F; reduced pup body weight
[24] = test system: Oryctolagus sp.; experiment: LD40; higher = less toxic; conditions: acute; dermal; occlusive; New Zealand
[25] = test system: Homo sapiens; conditions: clinical; duration: 16 days; oral; M/F; plasma cholinesterase inhibition
[26] = subchronic, duration: 13 weeks, oral, diet, B6C3F1
[27] = subchronic, duration: 13 weeks, diet, Fischer 344
[28] = duration: 1 days, injection, subcutaneous
[29] = gavage, M, Sprague-Dawley, Clinical Observation: Salivation (transient) + Functional Observational Battery: Salivation Spontaneous motor activity (total ambulatory …

SMILES: NC(=Nc1ccccc1)Nc1ccccc1 [1,3-Diphenylguanidine]
LD50 [1]: 250 mg/kg
LD50 ([2]; acute, injection, Intraperitoneal): 75 mg/kg and ≥ 25 mg/kg and ≤ 50 mg/kg
NOAEL ([2]; developmental, duration: 19 days, oral, gavage, ICR): ≥ 10 mg/kg-day
NOAEL ([2]; reproduction developmental, duration: 8 weeks, oral, gavage, CD1, generation: F0): ≥ 16 mg/kg-day
NOAEL ([2]; reproduction developmental, duration: 19 days, oral, gavage, F, ICR): 4 mg/kg-day
LOAEL [2, 26]: 148 mg/kg-day
NOAEL [2, 26]: 98.5 mg/kg-day
LD50 ([3]; oral): 250 mg/kg and 246 mg/kg
NOAEL ([4]; developmental, duration: 10 days, gavage, Sprague-Dawley): 25 mg/kg-day
NOAEL ([4]; reproduction developmental, duration: 13 weeks, diet, Fischer 344, generation: F0): 750 ppm
NOAEL ([4]; reproduction developmental, duration: 10 days, gavage, F, Sprague-Dawley): 5 mg/kg-day and 10 mg/kg-day
LOAEL ([4]; short-term, duration: 14 days, diet, Sprague-Dawley): 300 ppm
NOAEL ([4]; short-term, duration: 28 days, diet): 100 ppm
LOAEL [4, 27]: 72 mg/kg-day
NOAEL [4, 27]: 48 mg/kg-day
NOAEL ([4]; subchronic, duration: 90 days, diet, Sprague-Dawley): 14.4 mg/kg-day
NOEL ([5]; diet, F, Fischer 344, Deaths + Clinical Observation: Ruffled fur Emacation Pale skin + Body Weight Changes: decrease + Food Consumption: decrease + Hematology: …): < 17 mg/kg-day
NOEL ([5]; diet, M/F, Fischer 344, Deaths + Clinical Observation: Ruffled fur Emacation Pale skin + Body Weight Changes: decrease + Food Consumption: decrease + Hematology: …): < 24 mg/kg-day
LD0 [6]: 25 mg/kg
LD0 [7]: 200 mg/kg
LD0 [8]: > 2000 mg/kg
LD0 [9]: 50 mg/kg
LD100 ([10]; injection, subcutaneous): 50 mg/kg
LD100 ([10]; oral): 450 mg/kg

LEL ([11]; duration: 0.17 days, injection, subcutaneous): 2.88e-07 mg
LEL [11, 28]: 0.0761 mg/kg-day
LEL (gamma) ([11]; duration: 3 days, injection, subcutaneous): 0.04
LEL ([11]; duration: 3 days, oral): 0.93 mg/kg-day
LEL [12]: 0.001 mg/day
LEL ([13]; duration: 0.125 days, injection, subcutaneous): 0.001 mg/day
LEL ([13]; duration: 0.25 days, injection, subcutaneous): 0.001 mg/day
LEL ([13]; duration: 1 days, dermal): 3 mg/L
LEL ([13]; duration: 1 days, injection, intraperitoneal): 0.001 mg
LEL (% (w/w)) ([13]; duration: 2 days, implant): 40
LEL (pellets) ([13]; duration: 2 days, implant): 4
LEL ([13]; duration: 2 days, injection, subcutaneous): 0.01 mg/day
LEL ([13]; duration: 3 days, oral): 0.09 mg/kg-day
LEL (rat units) ([13]; duration: 5 days): 1
SMILES: C[C@]12CC[C@@H]3c4ccc(O)cc4CC[C@H]3[C@@H]1C[C@@H](O)[C@@H]2O [Estriol]

SMILES: C[C@H]1CCCC(=O)CCC/C=C/c2cc(O)cc(O)c2C(=O)O1 [Zearalenone]
NOEL ([5]; duration: 13 weeks, diet, M/F, Fischer 344, Body Weight Changes: decrease + Histopathology: Seminal vesicle-Atrophy Bone-Osteopetrosis Pituitary-Hyperplasia Mammary gland-Ductular …): < 2.88 mg/kg-day
LEL [11, 28]: 5 mg/kg-day
LEL ([11]; duration: 7 days, oral): 1 mg/kg-day
LEL ([11]; oral): 2 mg/kg-day
LEL [14]: 1 mg/kg-day
LEL ([13]; duration: 3 days, oral): 0.18 mg/day
LEL ([13]; duration: 3 days, oral, diet): 1 mg/kg-day
LEL ([13]; duration: 8 days, oral): 1 mg/kg-day
LOEL [15]: 0.2 mg/kg-day
NOEL [15]: 0.04 mg/kg-day

SMILES: CCOCCOCCO [2-(2-Ethoxyethoxy)ethanol]
NOAEL ([5]; duration: 60 days, gavage, M, CD(BR), Deaths + Clinical Observation: Bloody urine LethargyProstration PiloerectionUnkempt hair coat Blood around the mouth and nose + Body Weight …): 1340 mg/kg-day
NOAEL ([5]; duration: 90 days, diet, M/F, CFE, Body Weight Changes: Terminal body weight decrease% + Food Consumption: decrease% + Urinalysis: Oxalate crystals increase% + Hematology: …): 0.5%
NOAEL [16]: 167 mg/kg-day

SMILES: CCC(C)=O [Methyl ethyl ketone]
LOAEL [17]: 4570 mg/kg-day
NOAEL [17]: 1770 mg/kg-day
LEC [18]: 5200 mg/m3
LOAEL [19]: 1770 mg/kg-day
NOAEL [19]: 594 mg/kg-day
LOAEL [20]: 292 mg/m3
NOAEL [21]: 2980 mg/m3
NOAEL [22]: 1710 mg/kg-day
LD5 [23]: 639 mg/kg-day

SMILES: Cc1ccncc1 [4-Methylpyridine]
LD50 ([3]; dermal, occlusive, New Zealand): ≥ 126 mg/kg and ≤ 200 mg/kg
LD50 ([4]; acute, gavage, Sprague-Dawley): 841 mg/kg and 700 mg/kg
LOEL [5, 29]: 20 mg/kg-day
NOEL [5, 29]: 5 mg/kg-day
LD40 [24]: ≥ 200 mg/kg and ≤ 316 mg/kg

SMILES: O=P(O)(O)CCCl [Ethephon]
LEL [25]: 0.5 mg/kg-day
